Laboratory results published in patent publication US10028935B2, “Stabilized multi-functional antioxidant compounds and methods of use” (XPD Holdings, LLC, priority 2012, dated 2018).
In brackets after ≈: the same amount, converted by molar mass.

Assays:
[1] = Storage stability by reversed-phase HPLC quantitation of degradation products (impurities); type: physicochemical; conditions: storage for 1 or 2 months at 5° C., 25° C./60% RH and 40° C./75% RH; FIGS. 1-3
Experimental: The stability of Compound 45 and N-acetylcysteine amide (NACA) were determined using reversed-phase HPLC quantitation of the appearance of degradation products (impurities) after storage of the compounds for 1 or 2 months at 5° C., 25° C./60% relative humidity (RH), and 40° C./75% RH.
The chromatographic system used was an Agilent 1100 HPLC comprised of a degasser (model G1322A), pump (model G1311A), autosampler (model G1329A), column compartment (model G1316A), and a diode array detector (model G1315A). Agilent Chemstation software Rev. B.03.02 [341] was used to acquire and analyze all chromatographic data. […] Assay, identity, and purity of Compound 45 and NACA, and quantitation of impurities arising over time, was accomplished by a reversed-phase isocratic method using a Phenomenex Synergi Polar-RP (250×4.6 mm, […]) column at 15° C., 0.2% perchloric acid (PCA) in water and acetonitrile as mobile phase, UV detection at 210 nm, and a standard run time of 20 minutes. Standard solutions of Compound 45 and NACA were prepared in 0.2% perchloric acid to generate standard curves for quantitation of Compound 45 and NACA. Replicate samples of each analyte were collected at study initiation (baseline), after 1 month of storage under the various conditions and after 2 months of storage for quantitation of parent and impurities. […]

[2] = Solubility of stock solutions in dimethyl sulfoxide (DMSO); type: physicochemical; conditions: organic solvent or mixture, stock solution in dimethyl sulfoxide
Experimental: (§1) The solubility of Compound 45 and carnosine in physiologic buffer (phosphate buffered saline, pH 7.4; PBS) were determined using a BMG Labtech NEPHELOstar nephelometer (Offenburg, Germany) with Galaxy analytical software, version 4.32R2. Stock solutions of each compound were prepared initially in dimethyl sulfoxide (DMSO); Compound 45 was soluble at a concentration of 50 mM in DMSO, while carnosine was not. Subsequently, dilution series of both compounds were prepared directly in PBS (pH 7.4) for evaluation of solubility using nephlometry, with a top concentration of 500 mg/mL for each compound and serial 1:2 dilutions. A positive control compound was included to qualitatively illustrate concentration-solubility relationships using heat maps. Compound 45 was soluble in physiologic buffer at a concentration of 500 mg/mL, while carnosine was soluble only at concentrations of 250 mg/mL.

[3] = Solubility in physiologic buffer (PBS, pH 7.4) by nephelometry; type: physicochemical; conditions: aqueous buffer, thermodynamic from solid, phosphate buffered saline, top concentration 500 mg/mL, serial 1:2 dilutions
Experimental: as §1

[4] = Hydrolysis in human whole blood (disappearance of Compound 45, appearance of NACA and carnosine); type: in vitro ADME; conditions: 37° C.
Experimental: To determine hydrolysis of Compound 45 and appearance of NACA and carnosine in blood, samples of human whole blood from healthy donors anti-coagulated with sodium heparin were thermally equilibrated to, and maintained at 37° C. in a water bath. Compound 45 was then spiked from a single freshly prepared stock solution into blood aliquots to create separate samples of varying Compound 45 starting concentrations (135 μM, 13.5 μM, 10.9 μM [5 μg/mL], and 2.2 μM [1 μg/mL]). Immediately after spiking, tubes were mixed by very gently rocking tubes manually for 5 minutes to ensure homogeneity and remained in the 37° C. water bath until all time points were collected. […] Plasma samples were processed for quantitation of the disappearance (hydrolysis) of Compound 45 and the appearance of NACA or carnosine, as described below. […]
Samples in 96-well plates were analyzed on a Waters Acquity UPLC™ liquid chromatograph interfaced with a Thermo Scientific TSQ Vantage triple quadrupole mass spectrometer with electrospray ionization in the positive ion mode. […]
Compound 45, Carnosine and the NACA-thio-ether derivative product eluted at approximately 1.3 minutes. Compound 45 was detected by selected reaction monitoring of the mass-to-charge (m/z) 371 to 110 transition. Carnosine was detected by selected reaction monitoring of the m/z 227 to 110 transition. […]

solubility [2] [mM] | solubility [3] [mg/mL] | metabolism of thioester linkage in blood [4] | SMILES | extent of degradation as measured by the percent change (increase) from baseline in impurities [1]
≥ 50 | ≥ 500 | rapidly metabolized in blood | CC(=O)N[C@@H](CSC(=O)[C@H](Cc1cnc[nH]1)NC(=O)CCN)C(N)=O [Compound 45, (S)-S((R)-2-acetamido-3-amino-3-oxopropyl) 2-(3-aminopropanamido)-3-(1H-imidazol-5-yl)propanethioate] | less than the increase in impurities for NACA
< 50 | 250 (≈ 1110 mM) |  | NCCC(=O)N[C@@H](Cc1cnc[nH]1)C(=O)O [carnosine, reference compound] | 
